Results published in patent US10870886B2, “Molecular diagnosis of FSHD by epigenetic signature” (University of Massachusetts Medical Center, priority 2014, dated 2020).

Experiments:
DUX4-fl = DUX4-fl mRNA expression by qRT-PCR in myogenic cells treated with epigenetic drugs; assay type: cell-based, human; conditions: for DUX4-fl response: cells from nonmanifesting subjects 15B, 28B, 30B; for DUX4-fl levels: healthy control myogenic cells (five cohorts)
Method: (§1) Drug treatment. Stock solutions of 100 mM 5-Aza-2′-deoxycytidine/Decitabine, (Sigma-Aldrich A3656) in DMSO, 5 mM Trichostatin A solution (TSA, Sigma-Aldrich T1952), and 10 mM chaetocin (Sigma-Aldrich C9492) in DMSO were stored at −20° C. and diluted with PBS just before adding to the culture. To minimize culturing artifacts, low passage (<30 population doublings) myoblast cultures were used for all experiments and culture pairs for affected vs healthy or affected vs nonmanifesting were within 1 passage of each other in all instances. Myoblasts were seeded on collagen-coated plates at a cell density of 1.9×10^3/cm^2. Starting the following day, Decitabine (5 μM final concentration) was added daily for a total of 3 days. When used, TSA (200 nM final concentration) or chaetocin (50 nM final concentration) was added to the cells for the last 24 hrs prior to sampling.
qRT-PCR. Total RNAs were extracted using Trizol (Invitrogen) and purified using the RNeasy Mini kit (Qiagen) after on-column DNase I digestion. Total RNA (2 μg) was used for cDNA synthesis using Superscript III Reverse Transcriptase (Invitrogen), and 200 ng of cDNA were used for DUX4-fl qPCR analysis as described. All data were normalized to levels of 18S rRNA [98]. Oligonucleotide primer sequences are provided in [33]. For the analysis of ANKRD1 mRNA expression, 40 ng of cDNA were used with primers hANKRD1 For: […] (SEQ ID NO: 16) and Rev: […] (SEQ ID NO: 17).

[1] = test system: ANKRD1 (Ankyrin Repeat Domain 1); test: ANKRD1 mRNA expression by qRT-PCR in drug-treated myocytes (control gene); assay type: cell-based, human; conditions: myocytes of cohorts 07 and 19, affected (A) and control (U)
Method: as §1
qRT-PCR. Total RNAs were extracted using Trizol (Invitrogen) and purified using the RNeasy Mini kit (Qiagen) after on-column DNase I digestion. Total RNA (2 μg) was used for cDNA synthesis using Superscript III Reverse Transcriptase (Invitrogen), and 200 ng of cDNA were used for DUX4-fl qPCR analysis as described. All data were normalized to levels of 18S rRNA [98]. Oligonucleotide primer sequences are provided in [33]. For the analysis of ANKRD1 mRNA expression, 40 ng of cDNA were used with primers hANKRD1 For: […] […]

[2] = cells from FSHD1 individuals manifesting weakness 15A, 28A, 29A, 30A
[3] = myogenic cells of FSHD1-affected subject 03A, relative to untreated, Decitabine 5 μM daily 3 days, TSA 200 nM last 24 hrs

Row | SMILES | DUX4-fl expression (DUX4-fl; [2]) | DUX4-fl response (DUX4-fl) | DUX4-fl induction (DUX4-fl; cohort 07, as quoted in FIG. 22 legend from FIG. 20) [fold] | DUX4-fl induction (DUX4-fl; cohort 19, as quoted in FIG. 22 legend from FIG. 20) [fold] | DUX4-fl levels (DUX4-fl) | DUX4-fl induction (DUX4-fl; [3]) | DUX4-fl induction (DUX4-fl; myogenic cells of FSHD1-affected subject 07A, relative to untreated) [fold] | DUX4-fl induction (DUX4-fl; myogenic cells of FSHD1-affected subject 09A) | DUX4-fl induction (DUX4-fl; myogenic cells of FSHD1-affected subject 17A, relative to untreated) [fold] | DUX4-fl induction (DUX4-fl; myogenic cells of FSHD1-affected subject 19A, relative to untreated) [fold] | DUX4-fl expression (DUX4-fl; cohorts 07 and 19) | ANKRD1 expression [1]
1 | Nc1ncn([C@H]2C[C@H](O)[C@@H](CO)O2)c(=O)n1 [Decitabine, 5-aza-2′-deoxycytidine] | induced DUX4-fl expression | little to no response | 20 | 32 | only mildly induced | 50 fold | 120 | did not show induction | 3.2 | 122 |  | 
2 | CC(/C=C/C(=O)NO)=C\[C@@H](C)C(=O)c1ccc(N(C)C)cc1 [TSA, Trichostatin A] | little to no effect | little to no response |  |  | no effect | showed induction |  |  |  |  | no effect | induced ANKRD1 expression
